Experimental data reported in the NIST ThermoML archive (doi:10.1021/je700072a).

How the values were obtained:
[1] = molar heat capacity at constant pressure; details: 101.33 kPa, Crystal
[2] = Crystal; visual observation

NC[C@H]1CC[C@H](C(=O)O)CC1 [trans-4-(aminomethyl)cyclohexanecarboxylic acid]
[1]
Details | molar heat capacity at constant pressure [J/K/mol]
82.12 K | 74.7
86.25 K | 76.89
90.28 K | 79.76
94.31 K | 82.4
98.35 K | 85
102.41 K | 87.81
106.49 K | 90.49
110.6 K | 93.05
114.62 K | 95.54
118.68 K | 98.24
122.78 K | 100.67
126.81 K | 103.29
130.9 K | 105.64
135.04 K | 107.88
139.12 K | 109.84
143.27 K | 111.62
147.47 K | 113.47
151.62 K | 115.25
155.73 K | 116.97
159.91 K | 118.97
164.15 K | 120.5
168.36 K | 122.02
172.53 K | 123.18
176.78 K | 124.4
181.09 K | 125.84
185.38 K | 127.19
189.63 K | 128.43
193.83 K | 129.9
198.09 K | 130.84
202.43 K | 132.24
206.76 K | 133.38
211.06 K | 134.92
215.33 K | 136.11
219.57 K | 138
223.88 K | 139.22
228.26 K | 141.19
232.59 K | 143.17
236.84 K | 145.38
240.99 K | 147.84
245.16 K | 149.97
249.36 K | 153.29
253.5 K | 156.23
257.64 K | 159.56
261.72 K | 162.66
265.9 K | 166
270.14 K | 168.94
274.32 K | 172.81
278.44 K | 176.02
282.51 K | 180.3
286.62 K | 184.12
290.75 K | 187.46
294.85 K | 190.4
298.94 K | 194.15
303.01 K | 197.05
307.17 K | 200.02
311.37 K | 202.88
315.53 K | 205.54
319.67 K | 209.32
323.79 K | 212.66
327.88 K | 215.68
331.96 K | 219.46
336.09 K | 222.93
340.27 K | 226.39
344.44 K | 229.61
348.6 K | 233.13
352.73 K | 236.69
356.85 K | 239.65
360.96 K | 242.26
365.13 K | 245.3
369.37 K | 248.57
373.63 K | 252.41
377.94 K | 254.98

Details | Normal melting temperature [°C]
[2] | 249.00
